Data on 20 compounds can be found in ChEMBL document CHEMBL2331477, “Effect of helical conformation and side chain structure on γ-secretase inhibition by β-peptide foldamers: insight into substrate recognition” (J Med Chem, 2013).

Each structure is given as a SMILES string. Active and inactive are the calls of the source. The rule behind the calls is not given here.

For experiment [1], the target named is Gamma-secretase. Put plainly: Inhibition of gamma-secretase (unknown origin) expressed in N2a NL/N cells coexpressing betaAPPNL and NotchdeltaE assessed as Abeta42 secretion by ELISA. It is filed as cell-based, Homo sapiens. In general terms: In an ELISA, binding on a coated surface is turned into a signal by an enzyme label.
Experiment [2] addresses Gamma-secretase. Put plainly: Inhibition of gamma-secretase (unknown origin) expressed in N2a NL/N cells coexpressing betaAPPNL and NotchdeltaE assessed as Abeta40 secretion by ELISA. Type of experiment: cell-based, Homo sapiens.
Experiment [3] deals with T1, Gamma-secretase (Homo sapiens) (UniProt Q96BI3+Q9NZ42+Q8WW43+P49768+Q92542+P49810). Kind of experiment: Inhibition of gamma-secretase (unknown origin) expressed in N2a NL/N cells coexpressing betaAPPNL and NotchdeltaE assessed as Abeta40 secretion at 100 nM by ELISA. Type of experiment: cell-based.
For experiment [4], the target named is T1, Gamma-secretase (Homo sapiens). Kind of experiment: Inhibition of gamma-secretase (unknown origin) expressed in N2a NL/N cells coexpressing betaAPPNL and NotchdeltaE assessed as Abeta42 secretion at 100 nM by ELISA. It is filed as cell-based.

For orientation: IC50 means the concentration that inhibits the measured activity by half. On to `CC(=O)N1CCC[C@@H]1C(=O)N1CCC[C@@H]1C(=O)N1CCC[C@@H]1C(=O)N1CCC[C@@H]1C(=O)N1CCC[C@@H]1C(=O)N1CCC[C@@H]1C(=O)N1CCC[C@@H]1C(=O)N1CCC[C@@H]1C(=O)N1CCC[C@@H]1C(N)=O`, for which the half-maximal inhibitory concentration (IC50) in experiment [1] and in experiment [2] was more than 30 µM each time.

In the case of `CC(=O)N[C@H]1CCC[C@@H]1C(=O)N[C@H]1CCC[C@@H]1C(=O)N[C@@H](CCC(=O)O)CC(=O)N[C@H]1CCC[C@@H]1C(=O)N[C@H]1CCC[C@@H]1C(=O)N[C@H]1CCC[C@@H]1C(=O)N[C@H]1CCC[C@@H]1C(=O)N[C@H]1CCC[C@@H]1C(=O)N[C@H]1CCC[C@@H]1C(=O)N[C@H]1CCC[C@@H]1C(=O)N[C@H]1CCC[C@@H]1C(=O)N[C@H]1CCC[C@@H]1C(N)=O`, the inhibition result in experiment [3] and in experiment [4] was “Active” throughout.

Turning to `CC(=O)N[C@H]1CCC[C@@H]1C(=O)N[C@H]1CCC[C@@H]1C(=O)N[C@@H](C)CC(=O)N[C@H]1CCC[C@@H]1C(=O)N[C@H]1CCC[C@@H]1C(=O)N[C@H]1CCC[C@@H]1C(=O)N[C@H]1CCC[C@@H]1C(=O)N[C@H]1CCC[C@@H]1C(=O)N[C@H]1CCC[C@@H]1C(=O)N[C@H]1CCC[C@@H]1C(=O)N[C@H]1CCC[C@@H]1C(=O)N[C@H]1CCC[C@@H]1C(N)=O`, the inhibition entry in experiment [3] and in experiment [4] was “Active” in each case.

As to `CC(=O)N[C@H]1CCC[C@@H]1C(=O)N[C@H]1CCC[C@@H]1C(=O)N[C@H]1CCC[C@@H]1C(=O)N[C@H]1CCC[C@@H]1C(=O)N[C@H]1CCC[C@@H]1C(=O)N[C@H]1CCC[C@@H]1C(=O)N[C@H]1CCC[C@@H]1C(=O)N[C@H]1CCC[C@@H]1C(=O)N[C@H]1CCC[C@@H]1C(=O)N[C@H]1CCC[C@@H]1C(=O)N[C@H]1CCC[C@@H]1C(N)=O`, the IC50 in experiment [1] was 0.225 µM; in experiment [2] it was 0.244 µM.

Consider `CC(=O)N[C@H]1CCC[C@@H]1C(=O)N[C@H]1CCC[C@@H]1C(=O)N[C@H]1COC[C@@H]1C(=O)N[C@H]1CCC[C@@H]1C(=O)N[C@H]1CCC[C@@H]1C(=O)N[C@H]1CCC[C@@H]1C(=O)N[C@H]1CCC[C@@H]1C(=O)N[C@H]1CCC[C@@H]1C(=O)N[C@H]1CCC[C@@H]1C(=O)N[C@H]1CCC[C@@H]1C(=O)N[C@H]1CCC[C@@H]1C(=O)N[C@H]1CCC[C@@H]1C(N)=O`, for which the inhibition entry in experiment [3] and in experiment [4] was “Active” in each case.

Turning to `CC(=O)N[C@H]1CCC[C@@H]1C(=O)N[C@H]1CCC[C@@H]1C(=O)N[C@H]1CCC[C@@H]1C(=O)N[C@H]1CCC[C@@H]1C(=O)N[C@H]1CCC[C@@H]1C(=O)N[C@@H](CCC(N)=O)CC(=O)N[C@H]1CCC[C@@H]1C(=O)N[C@H]1CCC[C@@H]1C(=O)N[C@H]1CCC[C@@H]1C(=O)N[C@H]1CCC[C@@H]1C(=O)N[C@H]1CCC[C@@H]1C(=O)N[C@H]1CCC[C@@H]1C(N)=O`, the inhibition entry in experiment [3] and in experiment [4] was “inactive” each time.

`CC(=O)N1CCC[C@H]1C(=O)N1CCC[C@H]1C(=O)N1CCC[C@H]1C(=O)N1CCC[C@H]1C(=O)N1CCC[C@H]1C(=O)N1CCC[C@H]1C(=O)N1CCC[C@H]1C(=O)N1CCC[C@H]1C(=O)N1CCC[C@H]1C(N)=O`: the half-inhibitory concentration (IC50) in experiment [1] and in experiment [2] was more than 30 µM throughout.

Regarding `CC(=O)N[C@H]1CCC[C@@H]1C(=O)N[C@H]1CCC[C@@H]1C(=O)N[C@@H](CCCCN)CC(=O)N[C@H]1CCC[C@@H]1C(=O)N[C@H]1CCC[C@@H]1C(=O)N[C@H]1CCC[C@@H]1C(=O)N[C@H]1CCC[C@@H]1C(=O)N[C@H]1CCC[C@@H]1C(=O)N[C@H]1CCC[C@@H]1C(=O)N[C@H]1CCC[C@@H]1C(=O)N[C@H]1CCC[C@@H]1C(=O)N[C@H]1CCC[C@@H]1C(N)=O`, the inhibition entry in experiment [3] and in experiment [4] was “Active” in each case.

Turning to `CC(=O)N[C@H]1CCC[C@@H]1C(=O)N[C@H]1CCC[C@@H]1C(=O)N[C@H]1CCC[C@@H]1C(=O)N[C@H]1CCC[C@@H]1C(=O)N[C@H]1CCC[C@@H]1C(=O)N[C@H](CC(=O)N[C@H]1CCC[C@@H]1C(=O)N[C@H]1CCC[C@@H]1C(=O)N[C@H]1CCC[C@@H]1C(=O)N[C@H]1CCC[C@@H]1C(=O)N[C@H]1CCC[C@@H]1C(=O)N[C@H]1CCC[C@@H]1C(N)=O)CC(C)C`, the inhibition result in experiment [3] and in experiment [4] was “inactive” in each case.

Turning to `CC(=O)N[C@H]1CCC[C@@H]1C(=O)N[C@H]1CCC[C@@H]1C(=O)N[C@H]1CCC[C@@H]1C(=O)N[C@H]1CCC[C@@H]1C(=O)N[C@H]1CCC[C@@H]1C(=O)N[C@H]1CCC[C@@H]1C(=O)N[C@H]1CCC[C@@H]1C(=O)N[C@H]1CCC[C@@H]1C(=O)N[C@H](CC(=O)N[C@H]1CCC[C@@H]1C(=O)N[C@H]1CCC[C@@H]1C(=O)N[C@H]1CCC[C@@H]1C(N)=O)CC(C)C`, the inhibition entry in experiment [3] and in experiment [4] was “inactive” in each case.

In the case of `CC(=O)N[C@H]1CCC[C@@H]1C(=O)N[C@H]1CCC[C@@H]1C(=O)N[C@H]1CCC[C@@H]1C(=O)N[C@H]1CCC[C@@H]1C(=O)N[C@H]1CCC[C@@H]1C(=O)N[C@@H](CCC(=O)O)CC(=O)N[C@H]1CCC[C@@H]1C(=O)N[C@H]1CCC[C@@H]1C(=O)N[C@H]1CCC[C@@H]1C(=O)N[C@H]1CCC[C@@H]1C(=O)N[C@H]1CCC[C@@H]1C(=O)N[C@H]1CCC[C@@H]1C(N)=O`, the inhibition entry in experiment [3] and in experiment [4] was “inactive” in each case.

As to `CC(=O)N[C@H]1CCC[C@@H]1C(=O)N[C@H]1CCC[C@@H]1C(=O)N[C@H](CC(=O)N[C@H]1CCC[C@@H]1C(=O)N[C@H]1CCC[C@@H]1C(=O)N[C@H]1CCC[C@@H]1C(=O)N[C@H]1CCC[C@@H]1C(=O)N[C@H]1CCC[C@@H]1C(=O)N[C@H]1CCC[C@@H]1C(=O)N[C@H]1CCC[C@@H]1C(=O)N[C@H]1CCC[C@@H]1C(=O)N[C@H]1CCC[C@@H]1C(N)=O)Cc1ccc(O)cc1`, the inhibition entry in experiment [3] and in experiment [4] was “inactive” in each case.

As to `CC(=O)N[C@H]1CCC[C@@H]1C(=O)N[C@H]1CCC[C@@H]1C(=O)N[C@H]1CCC[C@@H]1C(=O)N[C@H]1CCC[C@@H]1C(=O)N[C@H]1CCC[C@@H]1C(=O)N[C@H]1CCC[C@@H]1C(=O)N[C@H]1CCC[C@@H]1C(=O)N[C@H]1CCC[C@@H]1C(=O)N[C@@H](CCC(N)=O)CC(=O)N[C@H]1CCC[C@@H]1C(=O)N[C@H]1CCC[C@@H]1C(=O)N[C@H]1CCC[C@@H]1C(N)=O`, the inhibition entry in experiment [3] and in experiment [4] was “inactive” throughout.

As for `CC(=O)N[C@H]1CCC[C@@H]1C(=O)N[C@H]1CCC[C@@H]1C(=O)N[C@H]1CCC[C@@H]1C(=O)N[C@H]1CCC[C@@H]1C(=O)N[C@H]1CCC[C@@H]1C(=O)N[C@H](CC(=O)N[C@H]1CCC[C@@H]1C(=O)N[C@H]1CCC[C@@H]1C(=O)N[C@H]1CCC[C@@H]1C(=O)N[C@H]1CCC[C@@H]1C(=O)N[C@H]1CCC[C@@H]1C(=O)N[C@H]1CCC[C@@H]1C(N)=O)Cc1ccc(O)cc1`, the inhibition entry in experiment [3] and in experiment [4] was “inactive” throughout.

For the compound `CC(=O)N[C@H]1CCC[C@@H]1C(=O)N[C@H]1CCC[C@@H]1C(=O)N[C@H]1CCC[C@@H]1C(=O)N[C@H]1CCC[C@@H]1C(=O)N[C@H]1CCC[C@@H]1C(=O)N[C@H]1CCC[C@@H]1C(=O)N[C@H]1CCC[C@@H]1C(=O)N[C@H]1CCC[C@@H]1C(=O)N[C@@H](CC(N)=O)CC(=O)N[C@H]1CCC[C@@H]1C(=O)N[C@H]1CCC[C@@H]1C(=O)N[C@H]1CCC[C@@H]1C(N)=O`, the inhibition result in experiment [3] and in experiment [4] was “inactive” each time.

Take `CC(=O)N[C@H]1CCC[C@@H]1C(=O)N[C@H]1CCC[C@@H]1C(=O)N[C@H]1CCC[C@@H]1C(=O)N[C@H]1CCC[C@@H]1C(=O)N[C@H]1CCC[C@@H]1C(=O)N[C@H]1CCC[C@@H]1C(=O)N[C@H]1CCC[C@@H]1C(=O)N[C@H]1CCC[C@@H]1C(=O)N[C@@H](CC(=O)N[C@H]1CCC[C@@H]1C(=O)N[C@H]1CCC[C@@H]1C(=O)N[C@H]1CCC[C@@H]1C(N)=O)[C@@H](C)O`: the inhibition entry in experiment [3] and in experiment [4] was “inactive” in each case.

Regarding `CC(=O)N[C@H]1CCC[C@@H]1C(=O)N[C@H]1CCC[C@@H]1C(=O)N[C@H]1CCC[C@@H]1C(=O)N[C@H]1CCC[C@@H]1C(=O)N[C@H]1CCC[C@@H]1C(=O)N[C@H](CO)CC(=O)N[C@H]1CCC[C@@H]1C(=O)N[C@H]1CCC[C@@H]1C(=O)N[C@H]1CCC[C@@H]1C(=O)N[C@H]1CCC[C@@H]1C(=O)N[C@H]1CCC[C@@H]1C(=O)N[C@H]1CCC[C@@H]1C(N)=O`, the inhibition entry in experiment [3] and in experiment [4] was “inactive” throughout.

On to `CC(=O)N[C@H]1CCC[C@@H]1C(=O)N[C@H]1CCC[C@@H]1C(=O)N[C@H]1CCC[C@@H]1C(=O)N[C@H]1CCC[C@@H]1C(=O)N[C@H]1CCC[C@@H]1C(=O)N[C@H]1CCC[C@@H]1C(=O)N[C@H]1CCC[C@@H]1C(=O)N[C@H]1CCC[C@@H]1C(=O)N[C@H](CC(=O)N[C@H]1CCC[C@@H]1C(=O)N[C@H]1CCC[C@@H]1C(=O)N[C@H]1CCC[C@@H]1C(N)=O)Cc1ccc(O)cc1`, for which the inhibition result in experiment [3] and in experiment [4] was “inactive” in each case.

For `CC(=O)N[C@H]1CCC[C@@H]1C(=O)N[C@H]1CCC[C@@H]1C(=O)N[C@H]1CCC[C@@H]1C(=O)N[C@H]1CCC[C@@H]1C(=O)N[C@H]1CCC[C@@H]1C(=O)N[C@H]1CCC[C@@H]1C(=O)N[C@H]1CCC[C@@H]1C(=O)N[C@H]1CCC[C@@H]1C(=O)N[C@@H](CCC(=O)O)CC(=O)N[C@H]1CCC[C@@H]1C(=O)N[C@H]1CCC[C@@H]1C(=O)N[C@H]1CCC[C@@H]1C(N)=O`, the inhibition entry in experiment [3] and in experiment [4] was “inactive” throughout.

For the compound `CC(=O)N[C@H]1CCC[C@@H]1C(=O)N[C@H]1CCC[C@@H]1C(=O)N[C@H](CC(=O)N[C@H]1CCC[C@@H]1C(=O)N[C@H]1CCC[C@@H]1C(=O)N[C@H]1CCC[C@@H]1C(=O)N[C@H]1CCC[C@@H]1C(=O)N[C@H]1CCC[C@@H]1C(=O)N[C@H]1CCC[C@@H]1C(=O)N[C@H]1CCC[C@@H]1C(=O)N[C@H]1CCC[C@@H]1C(=O)N[C@H]1CCC[C@@H]1C(N)=O)CC(C)C`, the inhibition result in experiment [3] and in experiment [4] was “Active” each time.
